Measurements published in PMC9228412, “Synthesis and Activity of Triazole-Adenosine Analogs as Protein Arginine Methyltransferase 5 Inhibitors” (Molecules, 2022).

Key:
PRMT5 = biological target: T1, PRMT5 (Homo sapiens, UniProt O14744); experiment: scintillation proximity assay (SPA) of PRMT5 methyltransferase activity; type: biochemical; conditions: 0.5 μM H4(1–20)K20biotin, 0.5 μM 3H-SAM; for remaining activity at 10 µM: 0.5 h, remaining activity of the enzyme, single point SPA test, inhibitor 10 μM, read-out: Relative Activity of PRMT5 at 10 μM; for IC50: SPA, concentration-dependent, read-out: IC50 PRMT5 (converted)
T1 construct: His-tag; made in house; host or cells: Sf9 insect cells (Bac-to-Bac baculovirus)
T1 sequence (O14744 whole entry): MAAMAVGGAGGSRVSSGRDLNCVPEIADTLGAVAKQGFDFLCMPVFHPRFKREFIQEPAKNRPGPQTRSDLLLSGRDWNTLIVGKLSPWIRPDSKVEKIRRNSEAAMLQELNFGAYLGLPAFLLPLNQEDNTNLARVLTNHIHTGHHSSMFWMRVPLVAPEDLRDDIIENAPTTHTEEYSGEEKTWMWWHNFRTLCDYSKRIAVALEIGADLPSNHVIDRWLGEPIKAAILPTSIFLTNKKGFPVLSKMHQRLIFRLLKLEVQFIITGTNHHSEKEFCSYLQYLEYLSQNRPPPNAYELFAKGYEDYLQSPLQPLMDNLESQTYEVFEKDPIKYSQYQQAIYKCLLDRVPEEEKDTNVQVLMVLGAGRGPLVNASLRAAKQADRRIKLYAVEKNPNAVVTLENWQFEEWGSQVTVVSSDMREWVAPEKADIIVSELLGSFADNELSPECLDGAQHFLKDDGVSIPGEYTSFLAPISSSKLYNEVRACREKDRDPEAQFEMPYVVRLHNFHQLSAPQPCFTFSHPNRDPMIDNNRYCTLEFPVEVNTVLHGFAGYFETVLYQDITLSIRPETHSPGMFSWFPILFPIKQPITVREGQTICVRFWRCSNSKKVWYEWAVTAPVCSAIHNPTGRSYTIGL
T1 sequence (Q9BQA1 whole entry partner): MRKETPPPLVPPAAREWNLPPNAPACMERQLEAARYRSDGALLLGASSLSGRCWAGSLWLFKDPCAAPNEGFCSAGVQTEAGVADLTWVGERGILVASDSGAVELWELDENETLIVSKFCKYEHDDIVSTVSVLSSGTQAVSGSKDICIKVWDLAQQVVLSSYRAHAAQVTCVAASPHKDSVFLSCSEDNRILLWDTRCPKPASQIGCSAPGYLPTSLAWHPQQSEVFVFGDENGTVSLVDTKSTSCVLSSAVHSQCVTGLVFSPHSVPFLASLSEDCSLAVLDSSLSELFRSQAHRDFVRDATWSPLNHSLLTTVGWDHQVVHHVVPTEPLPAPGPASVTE
Description: (§1) The methyltransferase activities of PRMT5 and PRMT1 in the absence and presence of the synthetic inhibitors were measured by using the scintillation proximity assay (SPA) protocol (Table 1). In the initial test, the inhibitor concentration was set at 10 μM. H4(1–20)K20biotin [Ac-[…](biotin)-NH2] was used as the peptide substrate, at a final concentration of 0.5 μM. ^3H-SAM was used as the methyl donor at 0.5 μM. SAH was used as a control inhibitor. […] Analysis of the biochemical activity results against PRMT5 disclosed a few interesting structure–activity relationship (SAR) trends. […] If the hydroxyl group of 3 was changed to an amine (6), the potency was improved; however, the selectivity was abolished. Generally, compounds that contained positive charges (6, 20, 21, 22, 24) near the triazole ring had further improved potencies.
Human recombinant His-tag PRMT5 was co-expressed with His-tag MEP50 using the Bac-to-Bac baculovirus expression system (Invitrogen, Life Technologies, Carlsbad, CA, USA) as previously described. Briefly, pFB-LIC-Bse-PRMT5 and pFB-LIC-Bse-MEP50 were heat shock transformed in the DH10Bac E. coli to obtain the recombinant bacmids, and the bacmids were extracted using the PureLink HiPure Plasmid Miniprep Kit (Invitrogen, Thermo Scientific, Carlsbad, CA, USA). The purity and concentration of the plasmid were measured by a Nanodrop. Sf9 cells were cultured in Sf-900 II SFM medium until the cell density reached 1.5 × 10^6 cells/mL and cell viability was more than 95%. Cells were plated in a 6-well tissue culture plate at a density of 4 × 10^5 cells/mL per well. In total, 2 µg of PRMT5 and MEP50 recombinant bacmid were transfected into each well of cells. After 5 h of transfection, the transfection medium was replaced by 2 mL of Sf-900 II SFM + 100 U P/S per well. The medium was collected and centrifuged at 1000 rpm for 5 min to obtain the supernatant P1 viral stock after 7 days of inoculation at 27.5 °C. To obtain a higher titer of viral stock, P1 viral stock was amplified in a 6-well tissue culture plate containing 2 × 10^6 cells per well. In total, 0.1 MOI of P1 virus stock was added into each well. After 7 days of incubation at 27.5 °C, the cell medium was centrifuged at 1000 rpm for 5 min to obtain the P2 viral stock in the supernatant. The Baculovirus plaque assay was performed to determine the viral titer concentration; the target concentration range was 1 × 10^7–1 × 10^8 IFU/mL.
For the expression of PRMT5 and MEP50, Sf9 insect cells were cultured in suspension at 27.5 °C at a speed of 130 rpm in Expression Systems ESF 921 medium with 100 U P/S. In total, 200 mL of Sf9 cell culture was inoculated with PRMT5 and MEP50 P2 viral stocks when the cell density reached 1.5 × 10^6 cells/mL. After incubation for 72 h at 27.5 °C, the cells were harvested and centrifuged. PRMT5 and MEP50 protein were collected in the cell pellet for further purification. Cell pellets were disrupted twice at 100 psi in 25 mL of cell lysis buffer (50 mM Tris pH 8, 300 mM NaCl, 10% glycerol, 0.1% Triton X-100, 1 mM PMSF). Before the Ni-NTA purification, 10 mL of Ni-NTA resin (EMD Millipore, Burlington, MA, USA) was loaded into a 50 mL column and equilibrated with equilibration buffer (50 mM Tris pH 8, 250 mM NaCl, 30 mM Imidazole, 10% glycerol, 1 mM TCEP, 1 mM PMSF). After 60 min of cell lysate centrifugation at 4 °C at 18,000 rpm, the cell lysate supernatant was incubated with the equilibrated nickel resin. The resin was washed with equilibration buffer and protein was eluted with elution buffer (50 mM Tris pH 8, 250 mM NaCl, 300 mM Imidazole, 10% glycerol, 1 mM TCEP, 1 mM PMSF). For the dialysis of protein, elution samples were loaded into a 10,000 MWCO SnakeSkin (Thermo Scientific, Waltham, MA, USA) dialysis bag in the storage buffer (50 mM Tris pH 8, 250 mM NaCl, 10% glycerol, 1 mM TCEP). […]

PRMT1 = PRMT1 (Homo sapiens, UniProt Q99873); experiment: scintillation proximity assay (SPA) of PRMT1 methyltransferase activity; type: biochemical; conditions: for remaining activity at 10 µM: 0.5 h, remaining activity of the enzyme, single point SPA test, inhibitor 10 μM, read-out: Relative Activity of PRMT1 at 10 μM; for IC50: SPA, concentration-dependent, read-out: IC50 PRMT1 (converted)
PRMT1, sequence (Q99873 whole entry, species assumed): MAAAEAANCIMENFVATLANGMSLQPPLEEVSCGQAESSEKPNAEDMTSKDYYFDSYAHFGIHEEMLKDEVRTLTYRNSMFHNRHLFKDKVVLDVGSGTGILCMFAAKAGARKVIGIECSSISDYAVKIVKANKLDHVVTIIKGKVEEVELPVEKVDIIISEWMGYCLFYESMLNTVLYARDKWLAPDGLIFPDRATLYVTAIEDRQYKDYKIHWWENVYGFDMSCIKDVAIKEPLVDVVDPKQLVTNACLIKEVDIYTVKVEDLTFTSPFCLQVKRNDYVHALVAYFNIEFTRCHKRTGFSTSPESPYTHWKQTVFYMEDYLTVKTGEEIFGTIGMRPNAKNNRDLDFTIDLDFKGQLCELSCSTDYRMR
Description: as §1
Inhibitor was dissolved in water to create a 10 mM stock concentration. This was then diluted in buffer (50 mM HEPES pH 8, 10 mM NaCl, 0.5 mM EDTA, 0.5 mM DTT in H2O) to create a series of working concentrations centered around an anticipated IC50. [H]^3-SAM and substrate were diluted together in buffer to working concentrations of […], respectively. To each well in a 96-well plate, 6 μL of the inhibitor solution was added, with negative and positive controls receiving buffer. In total, 6 μL of the [H]^3-SAM/substrate solution was then added to each well. The enzyme was then diluted in buffer to a working concentration of 0.83 μM, and 18 μL was added to each well, with negative controls receiving 18 μL of buffer. The plate was covered, and the reaction was allowed to run for 30 min and was then quenched with the addition of 30 μL of 100% iPrOH followed by 60 μL of 50% iPrOH in H2O. In total, 10 μL of 20 mg/mL streptavidin-coated scintillant beads were added and the plate was read using a MicroBeta (Perkin Elmer, Waltham, MA, USA) plate reader. The CPM counts in the absence of an inhibitor for each data set were considered as 100% activity. In the absence of the enzyme and inhibitor, the CPM counts in each data set were defined as background (0%).

Compound	remaining activity at 10 µM (PRMT5)	IC50 (PRMT5)	remaining activity at 10 µM (PRMT1)	IC50 (PRMT1)
[N-]=[N+]=NC[C@H]1O[C@@H](n2cnc3c(N)ncnc32)[C@H](O)[C@@H]1O [Compound 1, 5′-azido-5′-deoxyadenosine]	48 ± 9.7%	3 µM	97.5 ± 7.6%	> 1000 µM
Nc1ncnc2c1ncn2[C@@H]1O[C@H](Cn2ccnn2)[C@@H](O)[C@H]1O [Compound 2, (2R,3S,4R,5R)-2-((1H-1,2,3-triazol-1-yl)methyl)-5-(6-amino-9H-purin-9-yl)tetrahydrofuran-3,4-diol]		27 µM		> 1000 µM
Nc1ncnc2c1ncn2[C@@H]1O[C@H](Cn2cc(CO)nn2)[C@@H](O)[C@H]1O [Compound 3, (2R,3R,4S,5R)-2-(6-amino-9H-purin-9-yl)-5-((4-(hydroxymethyl)-1H-1,2,3-triazol-1-yl)methyl)tetrahydrofuran-3,4-diol]		4.4 µM		> 1000 µM
COCc1cn(C[C@H]2O[C@@H](n3cnc4c(N)ncnc43)[C@H](O)[C@@H]2O)nn1 [Compound 4, (2R,3R,4S,5R)-2-(6-amino-9H-purin-9-yl)-5-((4-(methoxymethyl)-1H-1,2,3-triazol-1-yl)methyl)tetrahydrofuran-3,4-diol]		144 µM		> 1000 µM
Nc1ncnc2c1ncn2[C@@H]1O[C@H](Cn2cc(CCO)nn2)[C@@H](O)[C@H]1O [Compound 5, (2R,3R,4S,5R)-2-(6-amino-9H-purin-9-yl)-5-((4-(2-hydroxyethyl)-1H-1,2,3-triazol-1-yl)methyl)tetrahydrofuran-3,4-diol]		195 µM		> 1000 µM
NCc1cn(C[C@H]2O[C@@H](n3cnc4c(N)ncnc43)[C@H](O)[C@@H]2O)nn1 [Compound 6, (2R,3R,4S,5R)-2-(6-amino-9H-purin-9-yl)-5-((4-(aminomethyl)-1H-1,2,3-triazol-1-yl)methyl)tetrahydrofuran-3,4-diol]	61 ± 8%	1.2 µM	96.3 ± 8%	
C[Si](C)(C)c1cn(C[C@H]2O[C@@H](n3cnc4c(N)ncnc43)[C@H](O)[C@@H]2O)nn1 [Compound 7, (2R,3R,4S,5R)-2-(6-amino-9H-purin-9-yl)-5-((4-(trimethylsilyl)-1H-1,2,3-triazol-1-yl)methyl)tetrahydrofuran-3,4-diol]		8.3 µM		> 1000 µM
CC(C)(C)c1cn(C[C@H]2O[C@@H](n3cnc4c(N)ncnc43)[C@H](O)[C@@H]2O)nn1 [Compound 8, (2R,3R,4S,5R)-2-(6-amino-9H-purin-9-yl)-5-((4-(tert-butyl)-1H-1,2,3-triazol-1-yl)methyl)tetrahydrofuran-3,4-diol]		7.7 µM		> 1000 µM
C[Si](C)(C)Cc1cn(C[C@H]2O[C@@H](n3cnc4c(N)ncnc43)[C@H](O)[C@@H]2O)nn1 [Compound 9, (2R,3R,4S,5R)-2-(6-amino-9H-purin-9-yl)-5-((4-((trimethylsilyl)methyl)-1H-1,2,3-triazol-1-yl)methyl)tetrahydrofuran-3,4-diol]		> 200 µM		> 1000 µM
Nc1ncnc2c1ncn2C1OC(Cn2cc(CCC(N)c3ccccc3)nn2)C(O)C1O (stereo not shown) [Compound 10]	71 ± 17%		103 ± 5.6%	
Nc1ncnc2c1ncn2[C@@H]1O[C@H](Cn2cc(C(=O)O)nn2)[C@@H](O)[C@H]1O [Compound 11, 1-(((2R,3S,4R,5R)-5-(6-amino-9H-purin-9-yl)-3,4-dihydroxytetrahydrofuran-2-yl)methyl)-1H-1,2,3-triazole-4-carboxylic acid]	74 ± 11%		96.9 ± 2.2%	
Nc1ncnc2c1ncn2[C@@H]1O[C@H](Cn2cc(CCCC(=O)O)nn2)[C@@H](O)[C@H]1O [Compound 12, 4-(1-(((2R,3S,4R,5R)-5-(6-amino-9H-purin-9-yl)-3,4-dihydroxytetrahydrofuran-2-yl)methyl)-1H-1,2,3-triazol-4-yl)butanoic acid]	73 ± 12%	> 400 µM	99.3 ± 6.7%	
Nc1ncnc2c1ncn2[C@@H]1O[C@H](Cn2cc(CCCCC(=O)O)nn2)[C@@H](O)[C@H]1O [Compound 13, 5-(1-(((2R,3S,4R,5R)-5-(6-amino-9H-purin-9-yl)-3,4-dihydroxytetrahydrofuran-2-yl)methyl)-1H-1,2,3-triazol-4-yl)pentanoic acid]	57 ± 4.4%	> 40 µM	92.7 ± 10%	
Nc1ncnc2c1ncn2[C@@H]1O[C@H](Cn2cc(-c3ccccc3)nn2)[C@@H](O)[C@H]1O [Compound 14, (2R,3R,4S,5R)-2-(6-amino-9H-purin-9-yl)-5-((4-phenyl-1H-1,2,3-triazol-1-yl)methyl)tetrahydrofuran-3,4-diol]	51 ± 5.7%	2.6 µM	90.1 ± 5.7%	
Nc1ncnc2c1ncn2[C@@H]1O[C@H](Cn2cc(CNC(=O)c3ccccc3)nn2)[C@@H](O)[C@H]1O [Compound 15, N-((1-(((2R,3S,4R,5R)-5-(6-amino-9H-purin-9-yl)-3,4-dihydroxytetrahydrofuran-2-yl)methyl)-1H-1,2,3-triazol-4-yl)methyl)benzamide]	94.2 ± 12%	> 40 µM	123 ± 4.4%	
Nc1ncnc2c1ncn2[C@@H]1O[C@H](Cn2cc(CNC(=O)OCc3ccccc3)nn2)[C@@H](O)[C@H]1O [Compound 16]	80 ± 9.5%		101 ± 10%	
CCC(=O)Oc1ccc(CCc2cn(C[C@H]3O[C@@H](n4cnc5c(N)ncnc54)[C@H](O)[C@@H]3O)nn2)cc1OC(=O)C(C)C [Compound 17]	56 ± 10%		91 ± 11%	
Nc1ncnc2c1ncn2[C@@H]1O[C@H](Cn2cc(C[C@H](NC(=O)OCC3c4ccccc4-c4ccccc43)C(=O)O)nn2)[C@@H](O)[C@H]1O [Compound 18, (S)-2-((((9H-fluoren-9-yl)methoxy)carbonyl)amino)-3-(1-(((2R,3S,4R,5R)-5-(6-amino-9H-purin-9-yl)-3,4-dihydroxytetrahydrofuran-2-yl)methyl)-1H-1,2,3-triazol-4-yl)propanoic acid]	56 ± 6.4%		91.2 ± 4.7%	
